The target of data set [1] is T1, OATP1B3 (Homo sapiens, UniProt Q9NPD5).
T1 construct: gene SLCO1B3; stably expressed in HEK293T cells (Shanghai Genechem), sodium butyrate induced
T1 sequence (Q9NPD5 1-702): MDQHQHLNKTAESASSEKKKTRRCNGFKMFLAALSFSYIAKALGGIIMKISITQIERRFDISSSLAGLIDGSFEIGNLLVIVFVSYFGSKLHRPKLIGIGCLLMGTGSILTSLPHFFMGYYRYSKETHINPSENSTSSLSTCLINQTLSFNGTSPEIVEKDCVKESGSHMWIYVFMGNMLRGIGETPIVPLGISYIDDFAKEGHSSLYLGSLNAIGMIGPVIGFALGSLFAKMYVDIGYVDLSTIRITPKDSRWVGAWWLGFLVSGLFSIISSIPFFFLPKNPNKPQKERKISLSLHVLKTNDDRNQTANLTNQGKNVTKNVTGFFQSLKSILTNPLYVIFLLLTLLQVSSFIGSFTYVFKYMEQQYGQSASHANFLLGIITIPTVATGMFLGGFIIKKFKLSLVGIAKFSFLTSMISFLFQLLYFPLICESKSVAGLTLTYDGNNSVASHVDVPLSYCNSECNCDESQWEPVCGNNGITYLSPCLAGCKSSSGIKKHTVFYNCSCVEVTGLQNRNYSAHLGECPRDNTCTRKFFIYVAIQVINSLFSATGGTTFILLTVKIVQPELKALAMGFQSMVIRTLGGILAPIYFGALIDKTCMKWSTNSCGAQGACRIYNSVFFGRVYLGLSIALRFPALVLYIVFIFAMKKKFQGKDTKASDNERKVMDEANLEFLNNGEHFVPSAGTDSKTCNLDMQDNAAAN
Nature of the data set: concentration-dependent uptake in HEK293T cells, LC-MS. It is filed as cell-based. The text has this: concentration-dependent uptake in HEK293T cells, LC-MS on OATP1B3 | uptake process of OPD for OATP1B3 followed a typical Michaelis-Menten equation

Data set [2] has as its target T1, OATP1B3. Briefly: inhibition of ophiopogonin D uptake in HEK293T cells, LC-MS. It is filed as cell-based. The text has this:
inhibition of ophiopogonin D uptake in HEK293T cells, LC-MS on OATP1B3

This passage reports Km and IC50 results from article PMC6113708, “Ginsenoside Rb1 and Rd Remarkably Inhibited the Hepatic Uptake of Ophiopogonin D in Shenmai Injection Mediated by OATPs/oatps” (Frontiers in Pharmacology, 2018).

By Km is commonly meant the concentration of substrate that gives half-maximal velocity. For the compound `C[C@@H]1CC[C@@]2(OC1)O[C@H]1C[C@H]3[C@@H]4CC=C5C[C@@H](O)C[C@@H](O[C@@H]6O[C@H](C)[C@H](O)[C@H](O[C@@H]7OC[C@@H](O)[C@H](O)[C@H]7O)[C@H]6O[C@@H]6O[C@@H](C)[C@H](O)[C@@H](O)[C@H]6O)[C@]5(C)[C@H]4CC[C@]3(C)[C@H]1[C@@H]2C` [Ophiopogonin D], the Km on OATP1B3 [1] amounted to 11.3 µM.
By IC50 is commonly meant the concentration that gives 50% inhibition. Lower therefore signals greater potency. The compound `CC(C)=CCC[C@](C)(O[C@@H]1O[C@H](CO)[C@@H](O)[C@H](O)[C@H]1O)[C@H]1CC[C@]2(C)[C@@H]1[C@H](O)C[C@@H]1[C@@]3(C)CC[C@H](O[C@@H]4O[C@H](CO)[C@@H](O)[C@H](O)[C@H]4O[C@@H]4O[C@H](CO)[C@@H](O)[C@H](O)[C@H]4O)C(C)(C)[C@@H]3CC[C@]12C` [ginsenoside Rd] yielded an IC50 against OATP1B3 [2] of 320 nM.
Turning to `CC(C)=CCC[C@](C)(O[C@@H]1O[C@H](CO[C@@H]2O[C@H](CO)[C@@H](O)[C@H](O)[C@H]2O)[C@@H](O)[C@H](O)[C@H]1O)[C@H]1CC[C@]2(C)[C@@H]1[C@H](O)C[C@@H]1[C@@]3(C)CC[C@H](O[C@@H]4O[C@H](CO)[C@@H](O)[C@H](O)[C@H]4O[C@@H]4O[C@H](CO)[C@@H](O)[C@H](O)[C@H]4O)C(C)(C)[C@@H]3CC[C@]12C` [ginsenoside Rb1], at OATP1B3 [2], the IC50 worked out at 570 nM.
